How the values were obtained:
Plasmodium falciparum [1] = test: Antiplasmodial activity against chloroquine-resistant Plasmodium falciparum FCR3; format: functional, organism-based
Plasmodium falciparum [2] = test: Antiplasmodial activity against chloroquine-sensitive Plasmodium falciparum 3D7; format: functional, organism-based
Plasmodium falciparum [3] = test: Antiplasmodial activity against chloroquine-resistant Plasmodium falciparum Bre1; format: functional, organism-based
Plasmodium falciparum [4] = test: Antiplasmodial activity against chloroquine-resistant Plasmodium falciparum W2; format: functional, organism-based
Plasmodium falciparum [5] = test: Antiplasmodial activity against chloroquine-sensitive Plasmodium falciparum D6; format: functional, organism-based
Plasmodium falciparum [6] = test: Antiplasmodial activity against chloroquine-sensitive Plasmodium falciparum IMT031; format: functional, organism-based
L6 = test: Toxicity against rat L6 cells assessed as induction of cell death at 100 uM; format: cell-based; settings: l6, 100 µM

Structure (SMILES) | IC50 (Plasmodium falciparum [1]) | IC50 (Plasmodium falciparum [2]) | IC50 (Plasmodium falciparum [3]; Plasmodium falciparum, Bre1) | IC50 (Plasmodium falciparum [4]; Plasmodium falciparum, W2) | IC50 (Plasmodium falciparum [5]) | IC50 (Plasmodium falciparum [6]) | IC50 (Plasmodium falciparum [3]) | IC50 (Plasmodium falciparum [4]) | IC90 (Plasmodium falciparum [1]) | IC90 (Plasmodium falciparum [2]) | IC90 (Plasmodium falciparum [3]; Plasmodium falciparum, Bre1) | IC90 (Plasmodium falciparum [4]; Plasmodium falciparum, W2) | IC90 (Plasmodium falciparum [5]) | IC90 (Plasmodium falciparum [6]) | Activity (L6)
CC[C@H](C)C(=O)O[C@H]1C[C@@H](C)C=C2C=C[C@H](C)[C@H](CC[C@@H](O)C[C@@H](O)CC(=O)O)[C@H]21 | 43.9 µM | 95.3 µM | 52.6 µM | 103 µM | 44.3 µM | 57.8 µM |  |  |  |  |  |  |  |  | 
CC[C@H](C)C(=O)O[C@H]1CCC=C2C=C[C@H](C)[C@H](CC[C@@H]3C[C@@H](O)CC(=O)O3)[C@H]21 [MEVASTATIN] | > 200 µM | > 200 µM | > 200 µM | > 200 µM | > 200 µM | > 200 µM |  |  |  |  |  |  |  |  | 
CCC(C)(C)C(=O)O[C@H]1C[C@@H](C)C=C2C=C[C@H](C)[C@H](CC[C@@H](O)C[C@@H](O)CC(=O)O)[C@H]21 | 76.7 µM | 69.8 µM | 48.4 µM | 58.9 µM | 51.3 µM | 36.9 µM |  |  |  |  |  |  |  |  | 
CC(C)n1c(/C=C/C(O)CC(O)CC(=O)O)c(-c2ccc(F)cc2)c2ccccc21 (stereo not drawn) [FLUVASTATIN SODIUM] | 116 µM | 108 µM | 92.5 µM | 90.2 µM | 92.3 µM | 87.1 µM |  |  |  |  |  |  |  |  | 
CC[C@H](C)C(=O)O[C@H]1CCC=C2C=C[C@H](C)[C@H](CC[C@@H](O)C[C@@H](O)CC(=O)O)[C@H]21 [listing 1 of 2 here] |  |  |  |  |  |  | 102 µM | > 200 µM |  |  |  |  |  |  | 
CC[C@H](C)C(=O)O[C@H]1C[C@@H](C)C=C2C=C[C@H](C)[C@H](CC[C@@H]3C[C@@H](O)CC(=O)O3)[C@H]21 [LOVASTATIN] | > 200 µM | > 200 µM | > 200 µM | > 200 µM | > 200 µM | > 200 µM |  |  |  |  |  |  |  |  | 
CC(C)c1c(C(=O)Nc2ccccc2)c(-c2ccccc2)c(-c2ccc(F)cc2)n1CC[C@@H](O)C[C@@H](O)CC(=O)O [ATORVASTATIN CALCIUM] | 5.1 µM | 11.8 µM | 5.8 µM | 4.8 µM | 5.8 µM | 5.3 µM |  |  | 23.6 µM | 39 µM | 24 µM | 14.8 µM | 18.1 µM | 15.8 µM | 
CC(C)c1c(C(=O)Nc2ccccc2)c(-c2ccccc2)c(-c2ccc(F)cc2)n1CC[C@@H](O)C[C@@H](O)CC(=O)O [ATORVASTATIN] |  |  |  |  |  |  |  |  |  |  |  |  |  |  | 27%
CC[C@H](C)C(=O)O[C@H]1C[C@H](O)C=C2C=C[C@H](C)[C@H](CC[C@@H](O)C[C@@H](O)CC(=O)O)[C@H]21 [PRAVASTATIN SODIUM] | > 200 µM | > 200 µM | > 200 µM | > 200 µM | > 200 µM | > 200 µM |  |  |  |  |  |  |  |  | 
CCC(C)(C)C(=O)O[C@H]1C[C@@H](C)C=C2C=C[C@H](C)[C@H](CC[C@@H]3C[C@@H](O)CC(=O)O3)[C@H]21 [SIMVASTATIN] | > 200 µM | > 200 µM | > 200 µM | > 200 µM | > 200 µM | > 200 µM |  |  |  |  |  |  |  |  | 
CC[C@H](C)C(=O)O[C@H]1CCC=C2C=C[C@H](C)[C@H](CC[C@@H](O)C[C@@H](O)CC(=O)O)[C@H]21 [listing 2 of 2 here] | > 200 µM | > 200 µM | > 200 µM |  | > 200 µM | > 200 µM |  | 88.5 µM |  |  |  |  |  |  | 

— ChEMBL document CHEMBL1157377, “Atorvastatin is 10-fold more active in vitro than other statins against Plasmodium falciparum” (Antimicrob Agents Chemother, 2007)
